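48-hour exposure; five concentrations; linearly interpolated endpoints. Here, GI50 denotes the concentration required for 50% inhibition of growth. Definition used: TGI = concentration required for complete inhibition of growth.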
Experiments:
Test in all cases: NCI-60 cell line screen, 48 h
SK-MEL-28 melanoma = system: SK-MEL-28 melanoma
SW-620 colon = system: SW-620 colon
UACC-257 melanoma = system: UACC-257 melanoma
K-562 leukemia = system: K-562 leukemia
IGROV1 ovarian = system: IGROV1 ovarian
NCI-H23 lung = system: NCI-H23 lung
EKVX NSCLC = system: EKVX NSCLC
A549 NSCLC = system: A549 NSCLC
U251 CNS = system: U251 CNS
UACC-62 melanoma = system: UACC-62 melanoma

Question: With C#C[C@@]1(O)[C@@H](CO)O[C@@H](n2cc(Cl)c3c(N)ncnc32)[C@@H]1O as the compound, how does the GI50 (SK-MEL-28 melanoma) read?
Answer: 575 nM

Question: What about the TGI (SK-MEL-28 melanoma) of the same compound?
Answer: 71500 nM

Question: And the GI50 (SW-620 colon)?
Answer: 70.9 nM

Question: What about the GI50 (UACC-257 melanoma) of the same compound?
Answer: 347 nM

Question: What about the TGI (UACC-257 melanoma) of the same compound?
Answer: > 79900 nM

Question: What about the GI50 (K-562 leukemia) of the same compound?
Answer: 99.3 nM

Question: And the TGI (K-562 leukemia)?
Answer: > 100000 nM

Question: What about the GI50 (IGROV1 ovarian) of the same compound?
Answer: 145 nM

Question: What about the TGI (IGROV1 ovarian) of the same compound?
Answer: 475 nM

Question: And the GI50 (NCI-H23 lung)?
Answer: 192 nM

Question: And the TGI (NCI-H23 lung)?
Answer: 957 nM

Question: What about the GI50 (EKVX NSCLC) of the same compound?
Answer: 261 nM

Question: What about the TGI (EKVX NSCLC) of the same compound?
Answer: 2430 nM

Question: Which results are given for CCC1CCc2nc3sc(C(=O)Nc4ccccc4F)c(N)c3cc2C1 (stereo not drawn)?
Answer: GI50 (SK-MEL-28 melanoma): 11300 nM; TGI (SK-MEL-28 melanoma): > 100000 nM; GI50 (SW-620 colon): 819 nM; TGI (SW-620 colon): > 100000 nM; GI50 (UACC-257 melanoma): 934 nM; TGI (UACC-257 melanoma): > 100000 nM; GI50 (A549 NSCLC): > 100000 nM; TGI (A549 NSCLC): > 100000 nM; GI50 (U251 CNS): > 100000 nM; TGI (U251 CNS): > 100000 nM; GI50 (K-562 leukemia): 402 nM; TGI (K-562 leukemia): > 100000 nM; GI50 (UACC-62 melanoma): 523 nM; TGI (UACC-62 melanoma): > 100000 nM; GI50 (IGROV1 ovarian): > 100000 nM; TGI (IGROV1 ovarian): > 100000 nM; GI50 (NCI-H23 lung): > 100000 nM; TGI (NCI-H23 lung): > 100000 nM

Question: Which GI50 (SK-MEL-28 melanoma) does the source give for O=C1C=C(Nc2ccccc2)c2ncccc2C1=O here?
Answer: 1700 nM

Question: What about the TGI (SK-MEL-28 melanoma) of the same compound?
Answer: 3240 nM

Question: What about the GI50 (SW-620 colon) of the same compound?
Answer: 340 nM

Question: And the TGI (SW-620 colon)?
Answer: 1280 nM

Question: And the GI50 (UACC-257 melanoma)?
Answer: 1290 nM

Question: What about the TGI (UACC-257 melanoma) of the same compound?
Answer: 2660 nM

Question: And the GI50 (A549 NSCLC)?
Answer: 476 nM

Question: What about the TGI (A549 NSCLC) of the same compound?
Answer: 2300 nM

Question: What about the GI50 (U251 CNS) of the same compound?
Answer: 348 nM

Question: What about the TGI (U251 CNS) of the same compound?
Answer: 1200 nM

Question: What about the GI50 (UACC-62 melanoma) of the same compound?
Answer: 224 nM

Question: What about the TGI (UACC-62 melanoma) of the same compound?
Answer: 521 nM

Question: What about the GI50 (IGROV1 ovarian) of the same compound?
Answer: 904 nM

Question: And the TGI (IGROV1 ovarian)?
Answer: 2580 nM

Question: What about the GI50 (NCI-H23 lung) of the same compound?
Answer: 307 nM

Question: What about the TGI (NCI-H23 lung) of the same compound?
Answer: 1310 nM

Question: And the GI50 (EKVX NSCLC)?
Answer: 1370 nM

Question: What about the TGI (EKVX NSCLC) of the same compound?
Answer: 2810 nM

Question: How did the GI50 (SK-MEL-28 melanoma) turn out when CCCCCCCCN(CCCCCCCC)C(=N)c1ccnc2ccccc12 was run?
Answer: 312 nM

Question: And the TGI (SK-MEL-28 melanoma)?
Answer: 1070 nM

Question: What about the GI50 (UACC-257 melanoma) of the same compound?
Answer: 1750 nM

Question: And the TGI (UACC-257 melanoma)?
Answer: 3350 nM

Question: And the GI50 (A549 NSCLC)?
Answer: 1580 nM

Question: What about the TGI (A549 NSCLC) of the same compound?
Answer: 3110 nM

Question: What about the GI50 (U251 CNS) of the same compound?
Answer: 1230 nM

Question: What about the TGI (U251 CNS) of the same compound?
Answer: 2580 nM

Question: And the GI50 (UACC-62 melanoma)?
Answer: 1250 nM

Question: And the TGI (UACC-62 melanoma)?
Answer: 2650 nM

Question: And the GI50 (NCI-H23 lung)?
Answer: 1490 nM

Question: And the TGI (NCI-H23 lung)?
Answer: 3030 nM

Question: What about the GI50 (EKVX NSCLC) of the same compound?
Answer: 1280 nM

Question: What about the TGI (EKVX NSCLC) of the same compound?
Answer: 2680 nM

Question: What does the source list for CC(C)C1C(=O)N2CCCC2C2(O)OC(NC(=O)C3C=C4c5cccc6[nH]cc(c56)CC4N(C)C3)(C(C)C)C(=O)N12 (stereo not drawn)?
Answer: TGI (SK-MEL-28 melanoma): > 100000 nM; TGI (SW-620 colon): > 100000 nM; TGI (UACC-257 melanoma): 76200 nM; TGI (A549 NSCLC): 67300 nM; TGI (U251 CNS): 70300 nM; TGI (UACC-62 melanoma): 55700 nM; TGI (IGROV1 ovarian): 36500 nM; TGI (NCI-H23 lung): > 100000 nM; TGI (EKVX NSCLC): 73100 nM

Question: Which results are given for CCCCCCCCCOC(=S)NC?
Answer: TGI (SK-MEL-28 melanoma): 58500 nM; TGI (SW-620 colon): 40900 nM; TGI (A549 NSCLC): 65100 nM; TGI (U251 CNS): 31500 nM; TGI (K-562 leukemia): 51100 nM; TGI (UACC-62 melanoma): 53900 nM; TGI (IGROV1 ovarian): 63700 nM; TGI (NCI-H23 lung): 34600 nM; TGI (EKVX NSCLC): 51600 nM

Question: What does the source list for O=c1ncc(-c2ccc(C(F)(F)F)cc2)c(NC2CCCCCC2)[nH]1?
Answer: GI50 (SK-MEL-28 melanoma): 17000 nM; TGI (SK-MEL-28 melanoma): 33900 nM; GI50 (SW-620 colon): 23900 nM; TGI (SW-620 colon): 68700 nM; GI50 (UACC-257 melanoma): 23100 nM; TGI (UACC-257 melanoma): 57600 nM; GI50 (A549 NSCLC): 25500 nM; TGI (A549 NSCLC): > 100000 nM; GI50 (K-562 leukemia): 24200 nM; TGI (K-562 leukemia): 60100 nM; GI50 (UACC-62 melanoma): 13800 nM; TGI (UACC-62 melanoma): 29300 nM; GI50 (IGROV1 ovarian): 19100 nM; TGI (IGROV1 ovarian): 40200 nM; GI50 (NCI-H23 lung): 29400 nM; TGI (NCI-H23 lung): 90900 nM

Question: How did the GI50 (SK-MEL-28 melanoma) turn out when Cc1ccc(-c2csc(N(C(=O)N3CCN(c4cc5c(cc4F)c(=O)c(C(=O)O)cn5C4CC4)CC3)c3ccccc3)n2)cc1 was run?
Answer: 582 nM

Question: And the TGI (SK-MEL-28 melanoma)?
Answer: > 100000 nM

Question: And the GI50 (UACC-257 melanoma)?
Answer: 372 nM

Question: And the TGI (UACC-257 melanoma)?
Answer: > 100000 nM

Question: What about the GI50 (A549 NSCLC) of the same compound?
Answer: 372 nM

Question: What about the TGI (A549 NSCLC) of the same compound?
Answer: > 100000 nM

Question: What about the GI50 (U251 CNS) of the same compound?
Answer: 368 nM

Question: What about the TGI (U251 CNS) of the same compound?
Answer: 6730 nM

Question: And the GI50 (K-562 leukemia)?
Answer: 269 nM

Question: And the TGI (K-562 leukemia)?
Answer: > 100000 nM

Question: And the GI50 (IGROV1 ovarian)?
Answer: 338 nM

Question: What about the TGI (IGROV1 ovarian) of the same compound?
Answer: > 100000 nM

Question: What about the GI50 (NCI-H23 lung) of the same compound?
Answer: 317 nM

Question: What about the TGI (NCI-H23 lung) of the same compound?
Answer: > 100000 nM

Question: What about the GI50 (EKVX NSCLC) of the same compound?
Answer: 381 nM

Question: And the TGI (EKVX NSCLC)?
Answer: > 100000 nM

Reference: PubChem BioAssay (NCI)
